Test results reported in paper PMC11767344, “Entire Encapsulation of Thymopentin by Extended Biphen[3]arene Carboxylate for Improving Plasma Stability” (Molecules, 2025).
Ends that are not written are not given here.

Tests used:
[1] = Plasma stability of thymopentin by HPLC; assay type: in vitro ADME; conditions: thymopentin 1.0 mM, equal amount of rat plasma, 37 °C, HPLC-UV 210 nm
Experimental: To test the above hypothesis, we compared the plasma stability of free thymopentin, a host–guest mixture of thymopentin/ExBP3C, thymopentin/CP5A, and thymopentin/cucurbit[7]uril (CB[7]) using high-performance liquid chromatography (HPLC). According to a previously reported method, the above samples (all containing 1.00 mM of thymopentin) were dissolved in deionized water and then incubated with an equal amount of rat plasma at 37 °C. At predetermined intervals, 100 μL of solution in various groups were withdrawn and quenched with 100 μL of acetonitrile containing 0.1% trifluoroacetic acid (TFA). HPLC analysis was performed on an LC-10AT VP Plus liquid chromatography system with an SPD-10 A VP Plus UV–Vis detector operating at 210 nm and quantified using Shimadzu LC solution Lite. The column used was a C18 reverse-phase column, and the mobile phase was composed of solvent A (water containing 0.1% TFA) and solvent B (70% acetonitrile and 0.1% TFA); the injection volume and flow rate were respectively set as 20 μL and 1.00 mL∙min^−1. The appropriate calibration curve was first derived to calculate the concentration of thymopentin based on the above-mentioned procedure (Figure 5a). […]
Figure 5 (a) Calibration curve obtained by HPLC and used to calculate thymopentin concentration in plasma stability. […] (2.0 mM) as determined by HPLC.

[2] = test system: mouse fibroblast cell line (L929); assay: Cytotoxicity, Cell Counting Kit-8; assay type: cell-based; conditions: 24 h, 37 °C, 5% CO2, CCK-8, 450 nm; even at relatively high concentrations; mean ± SD, n = 5
Experimental: (§1) In practical biomedical applications, the safety profiles of supplementary materials are of great concern. Here we preliminarily investigated the cytotoxicity of ExBP3C on a mouse fibroblast cell line (L929) and its hemolytic activity toward rabbit red blood cells (rRBCs). ExBP3C was first dissolved in deionized water and diluted to the required concentrations. For cytotoxicity studies, ExBP3C samples were added to L929 cell-containing wells, which were incubated at 37 °C under 5% CO2 for 24 h, and then the Cell Counting Kit-8 reagent was added into each well to stain for 30 min. […] For the hemolysis assay, ExBP3C samples were added to an erythrocyte suspension at 37 °C for 24 h. After that, the suspension was centrifuged at 1000 rpm for 10 min, and 100 μL of supernatant was transferred to a 96-well plate for measurement by a plate reader. […] On the basis of experimental results and prior studies, we concluded that the administration of ExBP3C at the above examination range was relatively nontoxic on a cellular level.
(§2) Figure 6 (a) Relative viability of mouse fibroblast cell line (L929) after treatment with ExBP3C for 24 h at the indicated concentrations (mean ± SD, n = 5). (b) Hemolysis of ExBP3C toward rabbit red blood cells (rRBCs) after 24 h of incubation time, and the hemolytic rate of rRBCs incubated with 1% Triton X-100 was defined as 100% (mean ± SD, n = 3).

[3] = test system: rabbit red blood cells (rRBCs); assay: Hemolysis assay; assay type: cell-based; conditions: 320 μM, 37 °C, 24 h; 1% Triton X-100 defined as 100%; mean ± SD, n = 3
Experimental: as §1, §2

thymopentin = molecular target: T1, thymopentin (Homo sapiens, UniProt P42166); assay: Isothermal titration calorimetry (ITC) of thymopentin into ExBP3C; assay type: binding; conditions: deionized water, 25 °C, ExBP3C 40 μM in cell, thymopentin 500 μM in syringe
T1 construct: purchased
Experimental: An isothermal microcalorimetric titration (ITC) experiment was further carried out in deionized water at 25 °C on a PEAQ-ITC to quantitatively assess the binding affinity and related thermodynamic parameters. A 300 μL solution of ExBP3C was placed in the sample cell at a concentration of 40 μM, and 70 μL of a solution of thymopentin (500 μM) was placed in the injection syringe. The titration was conducted by titration of 18 drops of thymopentin to the ExBP3C solution, and all solutions were degassed prior to titration. […] It should be noted that the binding stoichiometry between ExBP3C and thymopentin was determined to be 0.956 ± 0.011, which was very close to 1:1 and consistent with the above entire encapsulation mode (Figure 3). A larger interaction area of thymopentin/ExBP3C would facilitate the production of a stronger binding affinity.
Figure 3 ITC isotherm for the titration of thymopentin/ExBP3C in aqueous solution at room temperature (top: raw data; bottom: net reaction heat obtained from integration of calorimetric traces).

binding stoichiometry, N (sites) (thymopentin)	Substance	Residual thymopentin after exposure to rat plasma, in words ([1]; 30 min)	Time until thymopentin became undetectable ([1]; alone or with macrocycle 2.0 mM)	Cytotoxicity against L929 cells, in words [2]	Relative hemolysis [3]
	RKDVY [thymopentin]	undetectable	≤ 30 min		
0.956 ± 0.011	extended biphen[3]arene carboxylate [ExBP3C]			minimal cytotoxicity	1.92%
